From PMC3076215 (Biochemistry, 2011)

Molecular target: T1, Carbon monoxide dehydrogenase (CODH) (Afipia carboxidovorans, UniProt P19920)
T1 sequence (P19920 1-288): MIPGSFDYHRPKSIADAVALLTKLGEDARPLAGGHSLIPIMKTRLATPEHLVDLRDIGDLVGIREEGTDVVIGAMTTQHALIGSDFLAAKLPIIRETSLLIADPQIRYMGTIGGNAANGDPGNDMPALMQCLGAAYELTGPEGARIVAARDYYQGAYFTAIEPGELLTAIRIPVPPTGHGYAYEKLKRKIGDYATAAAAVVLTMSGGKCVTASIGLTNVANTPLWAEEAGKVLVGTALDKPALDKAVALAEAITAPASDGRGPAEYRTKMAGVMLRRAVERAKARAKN
T1 sequence (P19919 1-809 partner): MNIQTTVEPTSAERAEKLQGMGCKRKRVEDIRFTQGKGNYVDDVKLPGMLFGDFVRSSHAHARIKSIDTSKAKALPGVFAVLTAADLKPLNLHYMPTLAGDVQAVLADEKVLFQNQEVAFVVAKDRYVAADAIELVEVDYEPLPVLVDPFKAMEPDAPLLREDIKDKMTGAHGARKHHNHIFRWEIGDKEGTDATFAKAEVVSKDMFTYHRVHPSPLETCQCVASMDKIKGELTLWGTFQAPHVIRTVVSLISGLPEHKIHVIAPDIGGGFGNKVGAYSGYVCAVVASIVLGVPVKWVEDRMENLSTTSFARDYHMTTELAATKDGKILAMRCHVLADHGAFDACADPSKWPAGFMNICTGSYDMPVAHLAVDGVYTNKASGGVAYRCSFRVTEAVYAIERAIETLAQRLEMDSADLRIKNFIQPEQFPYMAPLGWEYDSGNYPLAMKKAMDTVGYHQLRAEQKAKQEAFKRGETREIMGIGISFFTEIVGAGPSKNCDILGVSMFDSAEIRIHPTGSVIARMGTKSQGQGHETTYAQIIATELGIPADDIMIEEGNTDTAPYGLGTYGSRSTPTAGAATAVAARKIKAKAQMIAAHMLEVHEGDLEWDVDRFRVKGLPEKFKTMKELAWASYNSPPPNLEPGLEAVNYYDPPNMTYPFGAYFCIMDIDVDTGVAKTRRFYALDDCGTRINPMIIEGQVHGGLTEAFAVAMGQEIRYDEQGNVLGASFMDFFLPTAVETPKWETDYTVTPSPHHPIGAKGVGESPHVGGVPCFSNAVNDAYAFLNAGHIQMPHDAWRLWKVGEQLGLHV
T1 sequence (P19921 1-166 partner): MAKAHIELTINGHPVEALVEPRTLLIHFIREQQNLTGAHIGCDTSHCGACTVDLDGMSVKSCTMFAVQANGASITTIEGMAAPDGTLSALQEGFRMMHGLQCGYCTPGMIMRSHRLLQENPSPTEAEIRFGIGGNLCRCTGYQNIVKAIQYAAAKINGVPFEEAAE
Assay: UV-vis difference titration at […] nm
Assay type: binding

## O=C1C=CC(=O)C=C1 [1,4-benzoquinone]
  Kd: 100 µM
